TGI data for 4 compounds are collected here from PubChem BioAssay (NCI).

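1) Cells in 96-well plates. 2) Compound, 48 h, 5 concentrations. 3) Linear interpolation between surrounding doses. 4) Unreached endpoint = highest concentration. At the TGI there is no net growth.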

Some test systems named below: K-562 leukemia; SK-OV-3 ovarian; EKVX NSCLC; HL-60(TB) leukemia; DU-145 prostate; UACC-62 melanoma; SNB-19 CNS; UACC-257 melanoma; HCT-116 colon; NCI-H460 lung; HOP-62 NSCLC; SF-539 CNS; NCI-H23 lung; SNB-75 CNS; SK-MEL-28 melanoma; HT29 colon; HCT-15 colon; IGROV1 ovarian; A549 NSCLC; SW-620 colon.
What all share (assay): DTP human tumour cell line panel, 48 h

Take `CCOC(=O)Cc1cnc(NC(NC(=O)CC)(C(F)(F)F)C(F)(F)F)s1`: the TGI with K-562 leukemia, with SK-OV-3 ovarian, in the assay on EKVX NSCLC, with HL-60(TB) leukemia, with DU-145 prostate and with UACC-62 melanoma was over 100 µM throughout. The concentration for total growth inhibition (TGI) with SNB-19 CNS, with UACC-257 melanoma, in the assay with HCT-116 colon, in the assay with NCI-H460 lung, with HOP-62 NSCLC and in the assay with SF-539 CNS was over 100 µM each time. The TGI in the assay on NCI-H23 lung, in the assay on SNB-75 CNS, in the assay with SK-MEL-28 melanoma, with HT29 colon and with HCT-15 colon was over 100 µM in each case.
Consider `Cc1nc2[nH]ncn2c(=O)c1CCO`, for which the TGI in the assay on K-562 leukemia, with SK-OV-3 ovarian, in the assay on EKVX NSCLC, with HL-60(TB) leukemia, with DU-145 prostate and in the assay with UACC-62 melanoma was over 10 µM in each case. The concentration for total growth inhibition (TGI) with IGROV1 ovarian, with A549 NSCLC, in the assay with SW-620 colon, with SNB-19 CNS, in the assay with HCT-116 colon and in the assay on NCI-H460 lung was over 10 µM each time. Besides, the TGI with HOP-62 NSCLC was over 10 µM; in the assay with SF-539 CNS, over 10 µM; with NCI-H23 lung, over 10 µM; in the assay on SNB-75 CNS, over 10 µM; in the assay with SK-MEL-28 melanoma, 7.74 µM; in the assay with HT29 colon it was over 10 µM. The compound also registered a TGI in the assay with HCT-15 colon of over 10 µM.
Turning to `COc1cc(C2c3cc4c(cc3[C@@H](Oc3ccc(F)cc3)C3COC(=O)[C@H]23)OCO4)cc(OC)c1O` (stereo partly specified), the TGI in the assay on K-562 leukemia is 30.4 µM; with EKVX NSCLC, over 100 µM; with HL-60(TB) leukemia, 1.06 µM; with UACC-62 melanoma, over 100 µM; in the assay with IGROV1 ovarian, over 100 µM; in the assay with A549 NSCLC, over 100 µM. Also, the TGI is over 100 µM in the assay on SW-620 colon; 22.8 µM with UACC-257 melanoma; over 100 µM with HCT-116 colon; 25.4 µM with NCI-H460 lung; 0.95 µM in the assay with HOP-62 NSCLC; over 100 µM in the assay with NCI-H23 lung. Also, the total growth inhibition concentration (TGI) in the assay on SK-MEL-28 melanoma is over 100 µM; in the assay on HT29 colon, 20 µM; in the assay on HCT-15 colon, over 100 µM.
With `COc1ccc2c3c([nH]c2c1)CCN(Cc1ccccc1)C3`, the total growth inhibition concentration (TGI) in the assay with K-562 leukemia was 51.3 µM; in the assay on SK-OV-3 ovarian, over 100 µM; with EKVX NSCLC, over 100 µM; in the assay with HL-60(TB) leukemia, 35.8 µM; in the assay with DU-145 prostate, over 100 µM; with UACC-62 melanoma, over 100 µM. The TGI with IGROV1 ovarian is over 100 µM; in the assay on A549 NSCLC, over 100 µM; with SW-620 colon it was 51.7 µM; with SNB-19 CNS, 44.3 µM; in the assay on UACC-257 melanoma, 42.5 µM; in the assay with HCT-116 colon, over 100 µM. Further, the TGI in the assay with NCI-H460 lung was 37.7 µM; with HOP-62 NSCLC it was 80.2 µM; with SF-539 CNS, 32.7 µM; with NCI-H23 lung it was over 100 µM; in the assay on SNB-75 CNS, over 100 µM; with SK-MEL-28 melanoma it was 38 µM. Also, the TGI was over 100 µM in the assay on HT29 colon and 39 µM in the assay on HCT-15 colon.

By TGI is commonly meant the concentration giving total growth inhibition. Read a high TGI as less potent growth arrest.
